Reference: US11958865B1, “Leucine-rich repeat kinase 2 (LRRK2) inhibitors” (H. Lundbeck A/S, priority 2022, dated 2024)
Where two headings read alike, the source gives them in different places.

How the values were obtained:
[1] = Fraction unbound in rat plasma and brain homogenate by equilibrium dialysis; assay type: in vitro ADME, male Sprague-Dawley rat; settings: 1 μM, equilibrium dialysis 5 h at 37° C.; for fubrain (% free): rat brain homogenate; for fuplasma (% free): rat plasma
Outline: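 Male Sprague-Dawley rat plasma or brain homogenate (diluted 1:4 in buffer) dialysed against 100 mM sodium phosphate pH 7.4 across a 12-14 kDa membrane, 1 μM compound (≤0.5% DMSO), 5 h at 37° C with shaking. LC/MS-MS of both chambers; fu from buffer/donor ratio, corrected for dilution factor D=4 (brain) or 1 (plasma).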

LRRK2 WT = LRRK2 WT (Homo sapiens (Human), UniProt Q5S007); assay: LRRK2 wild-type LanthaScreen TR-FRET kinase activity assay; assay type: biochemical; settings: 1 nM kinase, 1.3 mM ATP, n≥2 tests
LRRK2 G2019S = LRRK2 G2019S (Homo sapiens (Human), UniProt Q5S007, G2019S); assay: LRRK2 G2019S LanthaScreen TR-FRET kinase activity assay; assay type: biochemical; settings: 250 pM kinase, 1.3 mM ATP, n≥2 tests
[2] = Rat brain disposition after oral gavage; assay type: in vivo, male Sprague-Dawley rats; settings: male, Sprague-Dawley, 1 h, mean ± stdev; for Kp at 1 h / Kp uu at 1 h: n=3
Outline: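 Male Sprague-Dawley rats (n=3) dosed orally at 10 or 5 mg/kg in 0.5% HPMC suspension; plasma and brain taken at 0.5 or 1 h. LC-MS/MS quantitation; Kp is total brain:plasma ratio, and Kp,uu was derived using rat fu in plasma and brain.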

[3] = Hepatocyte intrinsic clearance assay; assay type: in vitro ADME, Human; settings: pooled donor, cryopreserved hepatocytes, pH 7.4; human hepatocytes 1×10^6/mL; 0.05 μM; 2 h at 37° C.
Outline: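 Compound (0.05 μM final, 0.05% organic) was incubated with pooled-donor cryopreserved hepatocytes (1×10^6/mL) in supplemented Leibovitz L-15, pH 7.4, at 37° C with shaking for 2 h. Samples were taken from 1 to 120 min, quenched in acetonitrile and analyzed by LC-MS/MS.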

[4] = brain, oral 5 mg/kg, n=3, read-out: Total brain concentration
[5] = plasma, oral 5 mg/kg, n=3, read-out: Total plasma concentration

LRRK2 G2019S, sequence (Q5S007 970-2527 G2019S): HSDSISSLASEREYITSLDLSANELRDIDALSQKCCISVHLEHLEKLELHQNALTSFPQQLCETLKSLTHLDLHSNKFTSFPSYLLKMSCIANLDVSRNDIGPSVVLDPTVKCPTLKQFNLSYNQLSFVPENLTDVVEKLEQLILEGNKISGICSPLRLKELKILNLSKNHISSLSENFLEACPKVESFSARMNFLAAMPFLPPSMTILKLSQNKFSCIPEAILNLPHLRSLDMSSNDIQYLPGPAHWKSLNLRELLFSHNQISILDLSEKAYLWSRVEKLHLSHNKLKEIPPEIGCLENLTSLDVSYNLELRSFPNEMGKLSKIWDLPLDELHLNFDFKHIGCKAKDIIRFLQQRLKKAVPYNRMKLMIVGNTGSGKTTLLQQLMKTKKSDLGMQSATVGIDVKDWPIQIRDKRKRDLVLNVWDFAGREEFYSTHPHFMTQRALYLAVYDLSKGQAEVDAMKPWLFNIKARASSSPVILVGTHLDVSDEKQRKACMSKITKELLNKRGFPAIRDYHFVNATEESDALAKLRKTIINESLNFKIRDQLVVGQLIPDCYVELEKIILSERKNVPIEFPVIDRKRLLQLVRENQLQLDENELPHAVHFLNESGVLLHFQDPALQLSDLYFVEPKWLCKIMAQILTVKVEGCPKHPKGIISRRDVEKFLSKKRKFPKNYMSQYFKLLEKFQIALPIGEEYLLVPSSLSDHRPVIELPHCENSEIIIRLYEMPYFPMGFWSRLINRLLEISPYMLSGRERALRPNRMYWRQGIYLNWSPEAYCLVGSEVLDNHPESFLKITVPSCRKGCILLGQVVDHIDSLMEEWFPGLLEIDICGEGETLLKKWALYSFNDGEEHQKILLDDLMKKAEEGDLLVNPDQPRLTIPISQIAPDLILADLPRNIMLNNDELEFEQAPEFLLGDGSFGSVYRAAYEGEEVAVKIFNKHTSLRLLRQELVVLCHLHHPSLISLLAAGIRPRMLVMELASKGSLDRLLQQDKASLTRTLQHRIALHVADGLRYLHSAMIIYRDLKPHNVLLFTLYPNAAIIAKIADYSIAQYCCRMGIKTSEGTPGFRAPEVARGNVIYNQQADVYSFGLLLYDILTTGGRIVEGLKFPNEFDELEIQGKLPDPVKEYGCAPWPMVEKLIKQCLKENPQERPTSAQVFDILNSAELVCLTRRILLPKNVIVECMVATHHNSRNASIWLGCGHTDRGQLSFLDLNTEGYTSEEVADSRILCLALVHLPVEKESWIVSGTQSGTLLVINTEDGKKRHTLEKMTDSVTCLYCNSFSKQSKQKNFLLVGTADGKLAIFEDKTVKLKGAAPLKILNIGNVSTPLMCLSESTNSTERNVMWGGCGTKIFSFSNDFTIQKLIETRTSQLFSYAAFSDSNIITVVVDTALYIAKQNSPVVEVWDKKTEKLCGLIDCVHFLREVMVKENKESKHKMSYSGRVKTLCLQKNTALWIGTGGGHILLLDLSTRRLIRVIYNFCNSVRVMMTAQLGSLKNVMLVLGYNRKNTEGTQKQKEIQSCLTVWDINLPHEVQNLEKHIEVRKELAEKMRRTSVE
LRRK2 WT, sequence (Q5S007 970-2527): as the sequence (Q5S007 970-2527 G2019S) above, with S1050G counted along it

Structure (SMILES) | fubrain (% free) [1] [% free] | fuplasma (% free) [1] [% free] | IC50 (LRRK2 WT) [nM] | IC50 (LRRK2 G2019S) [nM] | Kp at 1 h ([2]; brain, oral 5 mg/kg) | Kp uu at 1 h ([2]; brain, oral 5 mg/kg) | concentration at 1 h [2, 4] [ng/g] | concentration at 1 h [2, 5] [ng/mL] | CLint scaled at 0.05 μM [3] [mL/min/kg] | Kp at 1 h ([2]; brain, oral 10 mg/kg) | Kp uu at 1 h ([2]; brain, oral 10 mg/kg) | concentration at 1 h ([2]; brain, oral 10 mg/kg, n=3, read-out: Total brain concentration) [ng/g] | concentration at 1 h ([2]; plasma, oral 10 mg/kg, n=3, read-out: Total plasma concentration) [ng/mL]
Cc1nc(C)c(-n2nc3c(c2C)Nc2ncc4c(Cl)nn(c4n2)CCCO3)cc1F [Example 15, 8-Chloro-2-(5-fluoro-2,6-dimethylpyridin-3-yl)-3-methyl-2,4,12,13-tetrahydro-11H-5,7-(azenometheno)dipyrazolo[3,4-b:5′,1′-g][1]oxa[4,6,8]triazacycloundecine] | 5.0 | 11.0 | 4 | 1.4 | 1.8 ± 0.2 | 0.81 ± 0.07 | 254 ± 32 | 143 ± 8 | 12 | – | – | – | –
COc1ncc(C)cc1-n1nc2c(c1C)Nc1ncc3c(Cl)nn(c3n1)CCCO2 [Example 12, 8-Chloro-2-(2-methoxy-5-methylpyridin-3-yl)-3-methyl-2,4,12,13-tetrahydro-11H-5,7-(azenometheno)dipyrazolo[3,4-b:5′,1′-g][1]oxa[4,6,8]triazacycloundecine] | 3.0 | 6.7 | 0.4 | 0.13 | 1.9 ± 0.3 | 0.85 ± 0.15 | 146 ± 56 | 76 ± 23 | 8 | – | – | – | –
COc1nc(C)ccc1-n1nc2c(c1C)Nc1ncc3c(Cl)nn(c3n1)CCCO2 [Example 13, 8-Chloro-2-(2-methoxy-6-methylpyridin-3-yl)-3-methyl-2,4,12,13-tetrahydro-11H-5,7-(azenometheno)dipyrazolo[3,4-b:5′,1′-g][1]oxa[4,6,8]triazacycloundecine] | 1.9 | 7.4 | 0.57 | 0.22 | 2.5 ± 0.1 | 0.74 ± 0.01 | 496 ± 128 | 199 ± 52 | 31.3 | – | – | – | –
COc1nccc(C)c1-n1nc2c(c1C)Nc1ncc3c(Cl)nn(c3n1)CCCO2 [Example 7, 8-Chloro-2-(2-methoxy-4-methylpyridin-3-yl)-3-methyl-2,4,12,13-tetrahydro-11H-5,7-(azenometheno)dipyrazolo[3,4-b:5′,1′-g][1]oxa[4,6,8]triazacycloundecine] | 7.5 | 21.0 | 6.9 | 2.3 | 1.9 ± 0.3 | 0.68 ± 0.12 | 10 ± 2 | 6 ± 2 | 7.83 | – | – | – | –
COc1nc(C)ncc1-n1nc2c(c1C)Nc1ncc3c(Cl)nn(c3n1)CCCO2 [Example 22, 8-Chloro-2-(4-methoxy-2-methylpyrimidin-5-yl)-3-methyl-2,4,12,13-tetrahydro-11H-5,7-(azenometheno)dipyrazolo[3,4-b:5′,1′-g][1]oxa[4,6,8]triazacycloundecine] | 6.8 | 16.8 | 2.1 | 0.59 | 2.5 ± 0.4 | 1.02 ± 0.17 | 216 ± 42 | 86 ± 8 | < 4 | – | – | – | –
COc1ncccc1-n1nc2c(c1C)Nc1ncc3c(Cl)nn(c3n1)CCCO2 [Example 1, 8-Chloro-2-(2-methoxypyridin-3-yl)-3-methyl-2,4,12,13-tetrahydro-11H-5,7-(azenometheno)dipyrazolo[3,4-b:5′,1′-g][1]oxa[4,6,8]triazacycloundecine] | 4.7 | 14.7 | 1.1 | 0.45 | – | – | – | – | 10.7 | 2.6 ± 0.2 | 0.83 ± 0.07 | 620 ± 280 | 245 ± 121
Cc1c2c(nn1-c1cccnc1C(C)(F)F)OCCCn1nc(Cl)c3cnc(nc31)N2 [Example 14, 8-Chloro-2-(2-(1,1-difluoroethyl)pyridin-3-yl)-3-methyl-2,4,12,13-tetrahydro-11H-5,7-(azenometheno)dipyrazolo[3,4-b:5′,1′-g][1]oxa[4,6,8]triazacycloundecine] | 5.8 | 14.6 | 14 | 4.2 | 1.2 ± 0.1 | 0.49 ± 0.04 | 347 ± 53 | 283 ± 57 | 7.83 | – | – | – | –
